According to ChEMBL document CHEMBL4400570, “Designing of acyl sulphonamide based quinoxalinones as multifunctional aldose reductase inhibitors” (Bioorg Med Chem, 2019):
One block for each compound: values may come before it.

Experiments:
[1] = target: Aldo-keto reductase family 1 member B1 (Rattus norvegicus, UniProt P07943); experiment: Inhibition of Wistar rat lens ALR2 using L-glyceraldehyde as substrate preincubated for 10 mins followed by substrate addition and measured for 4 mins by spectrophotometric method
[2] = target: Aldo-keto reductase family 1 member A1 (Rattus norvegicus, UniProt P51635); experiment: Inhibition of Wistar rat kidney ALR1 using sodium D-glucuronate as substrate preincubated for 10 mins followed by substrate addition and measured for 4 mins by spectrophotometric method
[3] = species on record: Rattus norvegicus; experiment: Selectivity index, ratio of IC50 for Wistar rat kidney ALR1 to IC50 for Wistar rat lens ALR2
[4] = Octanol-buffer partition coefficient, log D of the compound at pH 7.4 measured after 24 hrs by HPLC based shake flask assay; format: physicochemical
[5] = Antioxidant activity assessed as DPPH radical scavenging activity at 100 uM relative to control; format: functional
[6] = Antioxidant activity assessed as DPPH radical scavenging activity at 50 uM relative to control; format: functional
[7] = Antioxidant activity assessed as DPPH radical scavenging activity at 10 uM relative to control; format: functional
[8] = test system: Brain; experiment: Antioxidant activity in rat brain homogenate assessed as inhibition of FeCl2/ascorbic acid-induced lipid peroxidation by measuring reduction in TBARS level at 100 uM measured after 30 mins by spectrophotometric method relative to control; format: functional, tissue-based
[9] = Antioxidant activity assessed as DPPH radical scavenging activity at 5 uM relative to control; format: functional
[10] = Antioxidant activity assessed as DPPH radical scavenging activity at 1 uM relative to control; format: functional
[11] = target: Aldo-keto reductase family 1 member B1 (Rattus norvegicus) (UniProt P07943); experiment: Inhibition of Wistar rat lens ALR2 at 100 uM using L-glyceraldehyde as substrate preincubated for 10 mins followed by substrate addition and measured for 4 mins by spectrophotometric method relative to control
[12] = test system: Brain; experiment: Antioxidant activity in rat brain homogenate assessed as inhibition of FeCl2/ascorbic acid-induced lipid peroxidation by measuring reduction in TBARS level at 50 uM measured after 30 mins by spectrophotometric method relative to control; format: functional, tissue-based
[13] = target: Aldo-keto reductase family 1 member B1 (Rattus norvegicus) (UniProt P07943); experiment: Inhibition of Wistar rat lens ALR2 at 10 uM using L-glyceraldehyde as substrate preincubated for 10 mins followed by substrate addition and measured for 4 mins by spectrophotometric method relative to control

Chain of Aldo-keto reductase family 1 member A1 (P51635 whole entry, looked up): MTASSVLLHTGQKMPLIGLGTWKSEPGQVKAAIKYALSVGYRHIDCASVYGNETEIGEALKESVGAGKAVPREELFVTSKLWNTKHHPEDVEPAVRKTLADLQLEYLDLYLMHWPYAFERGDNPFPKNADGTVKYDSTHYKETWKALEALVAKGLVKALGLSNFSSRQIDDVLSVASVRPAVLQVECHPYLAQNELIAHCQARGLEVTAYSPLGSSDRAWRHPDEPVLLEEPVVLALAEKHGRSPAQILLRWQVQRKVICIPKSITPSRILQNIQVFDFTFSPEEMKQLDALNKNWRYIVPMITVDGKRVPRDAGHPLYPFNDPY

- IC50 [1]: 0.627 µM
- IC50 [2]: 27.7 µM
- Ratio IC50 [3]: 44.2
- logD at 24 h [4]: 1.73
SMILES: O=C(Cn1c(=O)c(/C=C/c2ccc(O)cc2)nc2ccccc21)NS(=O)(=O)C(F)(F)F
- Activity [5]: 56.2%
- Activity [6]: 38.9%
- Activity [7]: 13.2%
- inhibition [8]: 38.6%

- IC50 [1]: 4.64 µM
- IC50 [2]: 57.9 µM
- Ratio IC50 [3]: 12.5
SMILES: O=C(Cn1c(=O)c(-c2ccc(O)c(O)c2)nc2ccccc21)NS(=O)(=O)C(F)(F)F
- Activity [5]: 92.3%
- Activity [6]: 89.6%
- Activity [7]: 81.4%
- Activity [9]: 46%
- Activity [10]: 6.8%
- inhibition [8]: 58.7%

- IC50 [1]: 38.7 µM
SMILES: COc1ccc(-c2nc3ccccc3n(CC(=O)NS(=O)(=O)C(F)(F)F)c2=O)cc1OC

- IC50 [1]: 55.1 µM
SMILES: COc1ccc(Oc2nc3ccccc3n(CC(=O)NS(=O)(=O)C(F)(F)F)c2=O)cc1

- IC50 [1]: 15.9 µM
- IC50 [2]: 42.5 µM
- Ratio IC50 [3]: 2.67
SMILES: COc1ccc(/C=C/c2nc3ccccc3n(CC(=O)NS(=O)(=O)C(F)(F)F)c2=O)cc1OC

- inhibition [11]: 35.9%
SMILES: CS(=O)(=O)NC(=O)Cn1c(=O)c(-c2ccccc2)nc2ccccc21

SMILES: Cc1c(C)c2c(c(C)c1O)CCC(C)(C(=O)O)O2 (stereo not given)
- Activity [5]: 96.5%
- Activity [6]: 94.7%
- Activity [7]: 77.9%
- Activity [9]: 39.3%
- Activity [10]: 8.2%
- inhibition [8]: 74.1%
- inhibition [12]: 36.6%

- IC50 [1]: 23.6 µM
SMILES: O=C(Cn1c(=O)c(-c2ccc(O)cc2)nc2ccccc21)NS(=O)(=O)C(F)(F)F

- IC50 [1]: 3.27 µM
- IC50 [2]: 23.9 µM
- Ratio IC50 [3]: 7.3
- logD at 24 h [4]: 1.05
SMILES: COc1cc(/C=C/c2nc3ccccc3n(CC(=O)NS(=O)(=O)C(F)(F)F)c2=O)ccc1O
- Activity [5]: 89.8%
- Activity [6]: 81.9%
- Activity [7]: 52.2%
- Activity [9]: 27.7%
- inhibition [8]: 61.9%

- logD at 24 h [4]: -1.63
SMILES: O=C(O)Cn1c(=O)c(/C=C/c2ccc(O)cc2)nc2ccccc21

- IC50 [1]: 71.9 µM
SMILES: O=C(Cn1c(=O)c(-c2ccc(F)cc2)nc2ccccc21)NS(=O)(=O)C(F)(F)F

- IC50 [1]: 0.1 µM
- IC50 [2]: 9.16 µM
- Ratio IC50 [3]: 91.6
- logD at 24 h [4]: -1.08
SMILES: O=C(Cn1c(=O)c(/C=C/c2ccc(O)c(O)c2)nc2ccccc21)NS(=O)(=O)C(F)(F)F
- Activity [7]: 82.1%
- Activity [9]: 51.9%
- Activity [10]: 11%
- inhibition [8]: 73.5%
- inhibition [12]: 39%

- IC50 [1]: 34 µM
SMILES: O=C(Cn1c(=O)c(-c2ccc(C(F)(F)F)cc2)nc2ccccc21)NS(=O)(=O)C(F)(F)F

- IC50 [1]: 35.2 µM
SMILES: CS(=O)(=O)NC(=O)Cn1c(=O)c(/C=C/c2ccccc2)nc2ccccc21

- inhibition [13]: 26.5%
SMILES: NC(=O)Cn1c(=O)c(/C=C/c2ccc(F)cc2)nc2ccccc21

- IC50 [1]: 6.38 µM
- IC50 [2]: 29.9 µM
- Ratio IC50 [3]: 4.68
- logD at 24 h [4]: 2.88
SMILES: O=C(Cn1c(=O)c(/C=C/c2ccccc2)nc2ccccc21)NS(=O)(=O)C(F)(F)F
- Activity [5]: 58.5%
- Activity [6]: 35.1%
- Activity [7]: 6.4%
- inhibition [8]: 20.6%

- logD at 24 h [4]: -2.59
SMILES: O=C(O)Cn1c(=O)c(/C=C/c2ccc(O)c(O)c2)nc2ccccc21
- Activity [5]: 95.4%
- Activity [6]: 89.2%
- Activity [7]: 46%
- Activity [9]: 21.8%
- inhibition [8]: 59.5%

- logD at 24 h [4]: 0.05
SMILES: O=C(O)Cn1c(=O)c(/C=C/c2ccccc2)nc2ccccc21

- inhibition [11]: 41.7%
SMILES: CS(=O)(=O)NC(=O)Cn1c(=O)c(Oc2ccccc2)nc2ccccc21

- logD at 24 h [4]: -2.66
SMILES: COc1cc(/C=C/c2nc3ccccc3n(CC(=O)O)c2=O)ccc1O
- Activity [5]: 94%
- Activity [6]: 73.6%
- Activity [7]: 44.4%
- Activity [9]: 21.1%
- inhibition [8]: 56.1%

- IC50 [1]: 14.3 µM
- IC50 [2]: 29.2 µM
- Ratio IC50 [3]: 2.05
SMILES: O=C(Cn1c(=O)c(/C=C/c2ccc(F)cc2)nc2ccccc21)NS(=O)(=O)C(F)(F)F

- IC50 [1]: 54 µM
SMILES: O=C(Cn1c(=O)c(Oc2ccccc2)nc2ccccc21)NS(=O)(=O)C(F)(F)F

- inhibition [13]: 24.6%
SMILES: NC(=O)Cn1c(=O)c(/C=C/c2ccccc2)nc2ccccc21

- IC50 [1]: 40.6 µM
SMILES: O=C(Cn1c(=O)c(Oc2ccc(Cl)cc2)nc2ccccc21)NS(=O)(=O)C(F)(F)F

- IC50 [1]: 74.7 µM
SMILES: O=C(Cn1c(=O)c(Oc2ccc(Br)cc2)nc2ccccc21)NS(=O)(=O)C(F)(F)F

- IC50 [1]: 38.1 µM
SMILES: O=C(Cn1c(=O)c(Oc2ccc(F)cc2)nc2ccccc21)NS(=O)(=O)C(F)(F)F

- IC50 [1]: 10.1 µM
- IC50 [2]: 73.6 µM
- Ratio IC50 [3]: 7.26
SMILES: O=C(Cn1c(=O)c(Oc2ccc(O)cc2)nc2ccccc21)NS(=O)(=O)C(F)(F)F
- Activity [5]: 8.1%
- inhibition [8]: 12.3%

- IC50 [1]: 75.2 µM
SMILES: O=C(Cn1c(=O)c(-c2ccccc2)nc2ccccc21)NS(=O)(=O)C(F)(F)F
